Data on two molecules can be found in publication PMC10939774 (Antiviral research, 2024).

In one data set the test system is HBV. As to conditions: patients; ref Bogomolov et al., 2016; cited from earlier work.
Data set [1] deals with HepG2.2.15 cells. Put plainly: HBsAg production from HepG2.2.15 cells. Format: cell-based, hepatitis B virus. Particulars: 10 μM, 7 days of culture.
The subject of a further data set is HepG2-NTCP cells. Put plainly: Cell viability by WST-8 assay in HepG2-NTCP cells. Particulars: 10 μM, 7 days, absorbance 450 nm. (In general: Formazan colour is commonly taken as a measure of viable cells.)
Another data set has as its system HBV genotype C. Put plainly: HBV infection of human primary hepatocytes. Format: cell-based, hepatitis B virus. As to conditions: 10 μM virus treatment; day 12 after infection; P < 0.0001 vs Ctn.
Data set [2] concerns HepG2.2.15 cells. As to conditions: 10 μM, 7 days of culture.
The next data set deals with HepG2.2.15-derived HBV. Put plainly: HepG2.2.15-derived HBV infection of HepG2-NTCP cells, HBsAg in culture medium. Format: cell-based, hepatitis B virus. As to conditions: 10 μM, HBsAg on Day 12 post-infection.

As to myrcludex-B, the “Improvement in clinical conditions and HBV DNA and HBsAg levels” value with HBV was “limited improvement”.

With `CC[C@H](C)[C@H](NC(=O)[C@H](CCCCN)NC(=O)[C@H](CCC(=O)O)NC(=O)[C@H](CCCCN)NC(=O)[C@H](CO)NC(=O)[C@H](CCCCN)NC(=O)[C@H](CCCNC(=N)N)NC(=O)[C@H](Cc1ccccc1)NC(=O)[C@H](Cc1ccccc1)NC(=O)[C@H](CC(=O)O)NC(=O)CNC(=O)[C@H](CC(C)C)NC(=O)[C@@H](N)CC(C)C)C(=O)NCC(=O)N[C@@H](CCCCN)C(=O)N[C@@H](CCC(=O)O)C(=O)N[C@@H](Cc1ccccc1)C(=O)N[C@@H](CCCCN)C(=O)N[C@@H](CCCNC(=N)N)C(=O)N[C@H](C(=O)N[C@H](C(=O)N[C@@H](CCC(N)=O)C(=O)N[C@@H](CCCNC(=N)N)C(=O)N[C@H](C(=O)N[C@@H](CCCCN)C(=O)N[C@@H](CC(=O)O)C(=O)N[C@@H](Cc1ccccc1)C(=O)N[C@@H](CC(C)C)C(=O)N[C@@H](CCCNC(=N)N)C(=O)N[C@@H](CC(N)=O)C(=O)N[C@@H](CC(C)C)C(=O)N[C@H](C(=O)N1CCC[C@H]1C(=O)N[C@@H](CCCNC(=N)N)C(=O)N[C@H](C(=O)N[C@@H](CCC(=O)O)C(=O)N[C@@H](CO)C(=O)O)[C@@H](C)O)C(C)C)[C@@H](C)CC)C(C)C)[C@@H](C)CC` [LL-37], the “HBsAg level in the culture medium of HepG2.2.15 cells compared to Ctn-treated cells” value in the data set on HepG2.2.15 cells [1] is “comparable”. Besides, in the data set on HepG2-NTCP cells, the “Cell viability, percentage of Ctn-treated cells” value stood at 77.6 ± 6.9%. In addition, in the data set with HBV genotype C, the “HBV DNA in the culture medium of HBV-infected human primary hepatocytes” value is given as “significant reductions” and the “HBeAg level in HBV-infected human primary hepatocytes” value was “significant reductions”. In addition, the “Viability of treated HepG2.2.15 cells” value in the data set with HepG2.2.15 cells [2] turned out to be 88.6%. Further, in the data set with HepG2.2.15-derived HBV (HepG2-NTCP cells treated 24 hours before infection), the “Effect on HBsAg level of pre-treatment of cells only” value was “minimal”. Further, the “Effect on HBsAg level of post-treatment of infected cells only” value in the data set on HepG2.2.15-derived HBV (during 11 days of culture after washing) is on record as “minimal”.
